The text below walks through data of ChEMBL document CHEMBL5678812, “Inhibitors of p21-activated kinases (PAKs)” (J Med Chem, 2015).

Data set [1] addresses Serine/threonine-protein kinase PAK 6 (Homo sapiens, UniProt Q9NQU5). Nature of the data set: Inhibition of recombinant PAK6 (unknown origin).
Data set [2] has as its target Cyclin-dependent kinase 7 (Homo sapiens, UniProt P50613). Nature of the data set: Inhibition of CDK7 (unknown origin).
The nature of data set [3]: Inhibition of p53/pin 1 (unknown origin) interaction. More on the design: species or system Homo sapiens.
Data set [4] has as its target Tumour suppressor p53/oncoprotein Mdm2 (Homo sapiens, UniProt P04637+Q00987). Nature of the data set: Inhibition of MDM2/p53 (unknown origin) interaction. The format is protein assay.
Data set [5] deals with HCT-116. As to the kind of experiment: Antitumor activity against human HCT-116 cells xenografted in mouse assessed as tumor growth inhibition at 7.5 to 30 mg/kg, po measured for 9 to 18 days. The format is functional. Particulars: dose 7.5-30 mg/kg, time 9-18 day. In general terms: Xenograft models place foreign cells or tissue in a host animal.
In data set [6] the test system is COLO 205. Nature of the data set: Antitumor activity against human COLO 205 cells xenografted in mouse assessed as tumor growth inhibition at 7.5 to 30 mg/kg, po measured for 9 to 18 days. It counts as functional. Particulars: dose 7.5-30 mg/kg, time 9-18 day.
Data set [7] relates to MDA-MB-231. Nature of the data set: Antitumor activity against human MDA-MB-231 cells xenografted in mouse assessed as tumor growth inhibition at 7.5 to 30 mg/kg, po measured for 9 to 18 days. The format is functional. As to conditions: dose 7.5-30 mg/kg, time 9-18 day.
The subject of data set [8] is A549. As to the kind of experiment: Antitumor activity against human A549 cells xenografted in mouse assessed as tumor growth inhibition at 7.5 to 30 mg/kg, po measured for 9 to 18 days. It counts as functional. Particulars: dose 7.5-30 mg/kg, time 9-18 day.
For data set [9], the system named is M24met. As to the kind of experiment: Antitumor activity against human M24met cells xenografted in mouse assessed as tumor growth inhibition at 7.5 to 30 mg/kg, po measured for 9 to 18 days. It counts as functional. Particulars: dose 7.5-30 mg/kg, time 9-18 day.
Data set [10] deals with T1, Serine/threonine-protein kinase PAK 4 (Homo sapiens, UniProt O96013). As to the kind of experiment: Inhibition of PAK4 (unknown origin) at 10 uM relative to control.
Target sequence in this assay (O96013 whole entry, looked up): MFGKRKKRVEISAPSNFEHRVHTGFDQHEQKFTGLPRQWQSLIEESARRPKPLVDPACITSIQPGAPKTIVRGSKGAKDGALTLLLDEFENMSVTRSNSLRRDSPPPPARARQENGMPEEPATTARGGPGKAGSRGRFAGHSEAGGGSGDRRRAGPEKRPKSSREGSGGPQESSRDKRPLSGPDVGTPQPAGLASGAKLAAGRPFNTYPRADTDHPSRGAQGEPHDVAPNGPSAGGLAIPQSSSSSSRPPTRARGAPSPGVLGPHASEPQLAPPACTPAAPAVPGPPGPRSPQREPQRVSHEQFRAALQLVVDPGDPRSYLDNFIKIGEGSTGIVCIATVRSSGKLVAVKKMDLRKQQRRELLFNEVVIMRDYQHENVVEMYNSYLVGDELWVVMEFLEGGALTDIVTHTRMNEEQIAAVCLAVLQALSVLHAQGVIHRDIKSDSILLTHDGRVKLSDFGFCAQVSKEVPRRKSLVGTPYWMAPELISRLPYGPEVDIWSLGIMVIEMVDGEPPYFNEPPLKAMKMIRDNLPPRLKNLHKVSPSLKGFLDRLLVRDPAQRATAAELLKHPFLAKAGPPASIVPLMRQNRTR
The nature of data set [11]: Kinetic solubility of compound. The format is physicochemical. As to conditions: read-out: Kinetic_solubility.
Data set [12] addresses Serine/threonine-protein kinase PAK 2 (Homo sapiens, UniProt Q13177). As to the kind of experiment: Binding affinity to PAK2 (unknown origin) assessed as dissociation constant.
In data set [13] the target is Serine/threonine-protein kinase PAK 3 (Homo sapiens, UniProt O75914). Nature of the data set: Binding affinity to PAK3 (unknown origin) assessed as dissociation constant.
Sequence of Serine/threonine-protein kinase PAK 3 (O75914 whole entry): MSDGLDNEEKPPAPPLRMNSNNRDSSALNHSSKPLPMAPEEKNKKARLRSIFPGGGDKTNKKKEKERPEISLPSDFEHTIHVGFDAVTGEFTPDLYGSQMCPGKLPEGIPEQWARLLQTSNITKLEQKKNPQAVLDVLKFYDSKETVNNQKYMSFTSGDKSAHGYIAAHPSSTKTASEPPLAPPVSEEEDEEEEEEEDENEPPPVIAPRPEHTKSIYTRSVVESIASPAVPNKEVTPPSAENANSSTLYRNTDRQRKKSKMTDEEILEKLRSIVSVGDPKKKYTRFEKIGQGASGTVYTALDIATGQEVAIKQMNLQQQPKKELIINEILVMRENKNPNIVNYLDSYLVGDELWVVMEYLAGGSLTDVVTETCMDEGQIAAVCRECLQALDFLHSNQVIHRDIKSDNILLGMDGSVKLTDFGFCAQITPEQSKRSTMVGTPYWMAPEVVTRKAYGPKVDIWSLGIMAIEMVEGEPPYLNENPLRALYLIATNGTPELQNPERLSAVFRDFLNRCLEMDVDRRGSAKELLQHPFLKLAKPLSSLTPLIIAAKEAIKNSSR
For data set [14], the target named is T1, Serine/threonine-protein kinase PAK 4. As to the kind of experiment: Binding affinity to PAK4 (unknown origin) assessed as dissociation constant.
Target sequence in this assay (O96013 whole entry): as the sequence (O96013 whole entry, looked up) above
The target in data set [15] is Serine/threonine-protein kinase PAK 5 (Homo sapiens, UniProt Q9P286). Nature of the data set: Binding affinity to PAK7 (unknown origin) assessed as dissociation constant.
Sequence of Serine/threonine-protein kinase PAK 5 (Q9P286 whole entry): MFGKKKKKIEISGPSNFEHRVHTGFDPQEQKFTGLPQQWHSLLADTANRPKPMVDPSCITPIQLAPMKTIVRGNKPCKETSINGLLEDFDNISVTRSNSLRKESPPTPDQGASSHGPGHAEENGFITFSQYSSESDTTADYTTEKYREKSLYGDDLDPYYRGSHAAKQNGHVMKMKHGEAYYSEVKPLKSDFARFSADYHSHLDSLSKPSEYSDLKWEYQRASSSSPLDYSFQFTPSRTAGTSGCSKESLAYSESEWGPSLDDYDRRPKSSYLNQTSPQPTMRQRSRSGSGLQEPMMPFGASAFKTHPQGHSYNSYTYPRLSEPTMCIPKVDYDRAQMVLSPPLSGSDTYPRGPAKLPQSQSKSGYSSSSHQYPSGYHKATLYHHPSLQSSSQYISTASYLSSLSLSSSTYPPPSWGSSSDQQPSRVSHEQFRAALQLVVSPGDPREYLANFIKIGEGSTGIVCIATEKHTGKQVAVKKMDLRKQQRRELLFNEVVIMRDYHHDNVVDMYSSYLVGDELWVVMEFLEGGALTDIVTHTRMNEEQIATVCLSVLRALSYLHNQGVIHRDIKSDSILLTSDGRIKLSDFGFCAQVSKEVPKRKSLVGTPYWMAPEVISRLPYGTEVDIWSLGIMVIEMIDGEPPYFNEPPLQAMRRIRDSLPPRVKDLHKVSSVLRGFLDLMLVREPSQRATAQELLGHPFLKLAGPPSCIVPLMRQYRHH
For data set [16], the target named is Serine/threonine-protein kinase PAK 4 (Mus musculus, UniProt Q8BTW9). As to the kind of experiment: Inhibition of PAK4 in mouse NIH3T3 cells assessed as reduction in phosphorylated GEF-H1 accumulation incubated for 30 mins by immunoblotting analysis. It counts as cell-based.
Sequence of Serine/threonine-protein kinase PAK 4 (Mus musculus, UniProt Q8BTW9) (Q8BTW9 whole entry): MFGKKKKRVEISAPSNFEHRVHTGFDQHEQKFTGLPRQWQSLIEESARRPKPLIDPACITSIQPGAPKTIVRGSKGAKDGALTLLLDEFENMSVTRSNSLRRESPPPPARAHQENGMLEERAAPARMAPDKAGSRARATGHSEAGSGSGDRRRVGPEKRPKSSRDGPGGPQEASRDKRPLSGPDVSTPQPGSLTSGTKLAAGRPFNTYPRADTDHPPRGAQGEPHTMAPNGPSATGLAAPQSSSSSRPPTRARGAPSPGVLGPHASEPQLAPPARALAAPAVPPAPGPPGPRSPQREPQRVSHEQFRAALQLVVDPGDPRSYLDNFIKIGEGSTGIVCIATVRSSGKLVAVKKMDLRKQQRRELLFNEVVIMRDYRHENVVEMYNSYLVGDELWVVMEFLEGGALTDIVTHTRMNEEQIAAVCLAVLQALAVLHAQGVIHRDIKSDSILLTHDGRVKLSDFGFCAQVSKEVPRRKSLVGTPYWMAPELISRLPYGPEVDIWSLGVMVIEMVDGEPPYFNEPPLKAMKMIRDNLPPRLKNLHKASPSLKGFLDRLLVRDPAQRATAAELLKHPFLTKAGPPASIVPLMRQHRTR
The nature of data set [17]: Apparent permeability across apical to basolateral side in human Caco-2 cells. It counts as ADME, cell-based. (In general: Caco-2 monolayers are a common model of the intestinal barrier.)
Data set [18] in a line: Clearance in rat at 10 mg/kg, po. It counts as ADME, organism-based. Particulars: in vivo.
Data set [19] can be described thus: Oral bioavailability in dog at 10 mg/kg. It counts as ADME, organism-based, Canis lupus familiaris. Particulars: in vivo.
The nature of data set [20]: Clearance in dog at 10 mg/kg, po. Particulars: in vivo. It counts as ADME, organism-based, Canis lupus familiaris.
Data set [21] can be described thus: Half life in dog at 10 mg/kg, po. Particulars: in vivo. It counts as ADME, organism-based, Canis lupus familiaris.
In data set [22] the test system is HCT-116. Nature of the data set: Antitumor activity against human HCT-116 cells xenografted in mouse assessed as tumor growth inhibition at 12 mg/kg, po. The format is functional. Particulars: read-out: TGI.
In data set [23] the test system is HCT-116. Nature of the data set: Antitumor activity against human HCT-116 cells xenografted in mouse assessed as tumor growth inhibition at 20 mg/kg, po. It counts as functional. Particulars: read-out: TGI.
The test system of data set [24] is M24met. As to the kind of experiment: Antitumor activity against human M24met cells xenografted in mouse assessed as tumor growth inhibition at 15 mg/kg, po. It counts as functional. As to conditions: read-out: TGI.
The subject of data set [25] is HCT-116. As to the kind of experiment: Antitumor activity against human HCT-116 cells xenografted in mouse assessed as downregulation of GEF-H1 phosphorylation at 25 mg/kg, po measured after 18 hrs. The format is functional.
Data set [26] deals with T1, Serine/threonine-protein kinase PAK 4. As to the kind of experiment: Inhibition of PAK4 (unknown origin) using 5-FAM-AhxKKRNRRLSVA-amide as substrate incubated for 90 mins by caliper off-chip mobility shift assay.
Target sequence in this assay (O96013 whole entry): as the sequence (O96013 whole entry, looked up) above
Data set [27] shares this target. As to the kind of experiment: Inhibition of PAK4 (unknown origin) in presence of ATP by Z-LYTE enzymatic kinase assay.
Target sequence in this assay (O96013 whole entry): as the sequence (O96013 whole entry, looked up) above
Data set [28] has the same target. Nature of the data set: Inhibition of PAK4 (unknown origin) assessed as inhibition constant.
Target sequence in this assay (O96013 whole entry): as the sequence (O96013 whole entry, looked up) above
Data set [29] has the same target. As to the kind of experiment: Inhibition of PAK4 (unknown origin).
Target sequence in this assay (O96013 whole entry): as the sequence (O96013 whole entry, looked up) above

Usually IC50 stands for the concentration that gives 50% inhibition. A word on the TGI: it is how far tumour growth fell short of that in controls. As a reminder, the inhibition is how much of the control response was suppressed. Lower therefore signals a weak effect. What is called Kd is a measure of binding affinity in units of concentration. By EC50 is commonly meant the concentration needed to bring the measured effect to its halfway point. Broadly, the Papp A→B is how fast a substance crosses the layer from the apical side. One may read the CL/F as clearance divided by bioavailability, as obtained after extravascular dosing. In general, bioavailability refers to the share of a dose that reaches the circulation, judged against a reference dose that is usually intravenous. As usually defined, the half-life is how long it takes for the measured level to halve. Read a high half-life as slow decline. One may read the Ki as the equilibrium dissociation constant of an inhibitor or competing ligand from its target.

The structures appear in SMILES notation. Converted amounts (≈) assume the structure as drawn. A value given as a limit tells only on which side of the number the result lay.

Sequence of Serine/threonine-protein kinase PAK 2 (Q13177 whole entry): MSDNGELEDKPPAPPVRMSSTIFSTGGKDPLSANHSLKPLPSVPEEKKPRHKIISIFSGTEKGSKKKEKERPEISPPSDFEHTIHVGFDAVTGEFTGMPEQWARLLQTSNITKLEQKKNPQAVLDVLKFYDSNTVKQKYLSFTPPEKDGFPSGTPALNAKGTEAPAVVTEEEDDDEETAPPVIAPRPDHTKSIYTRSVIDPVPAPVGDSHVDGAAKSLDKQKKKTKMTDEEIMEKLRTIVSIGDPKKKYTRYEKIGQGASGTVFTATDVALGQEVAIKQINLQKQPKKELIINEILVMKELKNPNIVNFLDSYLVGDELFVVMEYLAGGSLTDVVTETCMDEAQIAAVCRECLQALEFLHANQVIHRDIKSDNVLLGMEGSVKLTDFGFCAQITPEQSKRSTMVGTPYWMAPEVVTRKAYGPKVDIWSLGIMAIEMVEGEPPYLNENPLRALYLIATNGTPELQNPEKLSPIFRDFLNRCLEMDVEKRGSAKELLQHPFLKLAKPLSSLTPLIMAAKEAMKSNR
Sequence of Serine/threonine-protein kinase PAK 6 (Q9NQU5 whole entry): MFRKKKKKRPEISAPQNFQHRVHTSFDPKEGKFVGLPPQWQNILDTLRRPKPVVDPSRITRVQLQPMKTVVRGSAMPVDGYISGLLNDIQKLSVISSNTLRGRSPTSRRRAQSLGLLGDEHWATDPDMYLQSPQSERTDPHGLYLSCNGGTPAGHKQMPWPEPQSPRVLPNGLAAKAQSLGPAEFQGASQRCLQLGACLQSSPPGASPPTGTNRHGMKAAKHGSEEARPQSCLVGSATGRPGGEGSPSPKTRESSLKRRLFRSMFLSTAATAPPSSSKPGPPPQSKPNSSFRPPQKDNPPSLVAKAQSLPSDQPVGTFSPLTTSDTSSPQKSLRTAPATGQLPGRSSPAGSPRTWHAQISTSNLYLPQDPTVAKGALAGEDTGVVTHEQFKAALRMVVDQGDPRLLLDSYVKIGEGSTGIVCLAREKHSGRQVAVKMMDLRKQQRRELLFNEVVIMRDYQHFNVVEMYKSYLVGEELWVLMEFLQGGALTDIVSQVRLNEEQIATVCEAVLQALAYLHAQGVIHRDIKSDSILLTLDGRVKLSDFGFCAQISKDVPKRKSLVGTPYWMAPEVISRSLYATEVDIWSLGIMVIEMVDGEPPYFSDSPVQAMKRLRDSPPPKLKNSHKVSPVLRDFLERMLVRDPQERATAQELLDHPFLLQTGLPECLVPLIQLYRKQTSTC
Sequence of Cyclin-dependent kinase 7 (P50613 whole entry): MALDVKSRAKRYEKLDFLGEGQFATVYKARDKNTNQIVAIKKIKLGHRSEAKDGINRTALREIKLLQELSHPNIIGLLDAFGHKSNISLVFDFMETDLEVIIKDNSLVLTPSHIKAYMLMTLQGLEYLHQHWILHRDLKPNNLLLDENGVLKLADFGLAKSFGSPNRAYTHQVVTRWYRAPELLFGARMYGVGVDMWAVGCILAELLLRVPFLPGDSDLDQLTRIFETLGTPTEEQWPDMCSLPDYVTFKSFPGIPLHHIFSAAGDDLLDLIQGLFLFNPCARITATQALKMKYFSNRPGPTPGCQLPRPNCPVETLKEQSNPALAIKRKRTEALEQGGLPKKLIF

For the compound `Cc1nc(Nc2n[nH]c3c2CN(C(=O)N[C@H](CN(C)C)c2ccccc2)C3(C)C)c2sccc2n1` [PF-03758309], the IC50 in data set [1] was roughly 20 nM; in [2], 7 nM; in [3] it was 5.7 nM; in data set [4], 5.6 nM. Besides, the TGI in [5], in data set [6], in [7], in data set [8] and in [9] was greater than 70% throughout.
For `CCn1cnc2c(Nc3cccc(Cl)c3)nc(NC3CCCCC3N)nc21` (stereo not given), in data set [10], the inhibition was found to be 44%.
Regarding `CC(C)NC(=O)N1CCC(NC2=Nc3cc(F)ccc3N(CC(F)F)c3ccc(Cl)cc32)C1` (stereo not given), the solubility kinetic in data set [11] worked out at 55 µM (≈ 26.4 µg/mL). In addition, the Kd in [12] was determined as 400 nM.
With `CCN1c2ccc(F)cc2N=C(NC2CCN(C(=O)NC(C)(C)C)C2)c2cc(Cl)ccc21` (stereo not given), the Kd in data set [12] was 1100 nM; in data set [13], greater than 40000 nM; in [14] it was greater than 40000 nM; in data set [15], greater than 40000 nM.
`CN(C)C[C@@H](OC(=O)N1Cc2c(NC(=O)C(C)(C)C)n[nH]c2C1(C)C)c1ccccc1`: the EC50 in [16] was 4 nM. In addition, the Papp A→B in data set [17] was 1.7 ×10⁻⁶ cm/s. Further, the CL/F in [18] was determined as 52 mL/min/kg; in data set [20], 12 mL/min/kg. In [19], this compound displayed a bioavailability of 20%. This compound also showed a half-life in [21] of 2.2 h. The inhibition in vivo at 12 mg/kg in [22] is 37%. The inhibition in vivo at 20 mg/kg in data set [23] was 52%. Moreover, in data set [24], the inhibition in vivo at 15 mg/kg turned out to be 68%.
For the compound `CN(C)C[C@@H](NC(=O)N1Cc2c(NC(=O)c3ccccc3)n[nH]c2C1(C)C)c1ccccc1`, the EC50 in data set [16] was found to be 32 nM. Moreover, the Papp A→B in data set [17] came out at 0.1 ×10⁻⁶ cm/s. Also, the Activity in data set [25] is reported as roughly 61%.
As for `CN(C)C[C@@H](NC(=O)c1ccc2[nH]nc(-c3nc4ccccc4[nH]3)c2c1)c1ccccc1`, in data set [16], the EC50 is 13 nM.
In the case of `O=C(c1ccccc1Cl)c1n[nH]c2ncc(-c3cnn(C4CCNCC4)c3)cc12`, the IC50 in [26] was 550 nM.
`CCn1c(=O)c(-c2ccc(-c3cncs3)cc2Cl)cc2cnc(Nc3ccc(N4CCN(C)CC4)cc3)nc21`: the IC50 in data set [27] was greater than 10000 nM.
Turning to `CN1CCN(C(=O)N2Cc3c(NC(=O)c4cccc(Oc5ccccc5)c4)n[nH]c3C2(C)C)[C@@H](Cc2ccccc2)C1`, the EC50 in data set [16] was found to be 810 nM.
On to `N[C@@H]1[C@H]2CN(c3nc(Nc4cc(C5CC5)[nH]n4)c4sccc4n3)C[C@@H]12`, for which the Ki in data set [28] turned out to be 4 nM.
On to `CCn1c(=O)c(-c2ccc(-c3noc(C)n3)cc2Cl)cc2cnc(Nc3ccc(C4CCN(C)CC4)cc3)nc21`, for which, in data set [29], the IC50 stood at 960 nM.
As to `COc1nc(NCCc2c[nH]c3ccccc23)nc(Nc2ccc3[nH]ncc3c2)n1`, half-maximal inhibition in data set [29] (IC50) required 790 nM.
